Results taken from publication PMC12920294, “Optimizing uPAR-targeting radiopeptides for improved tissue distribution: progress towards radionuclide therapy” (European Journal of Nuclear Medicine and Molecular Imaging, 2025).
Read-outs that look alike come from different tables or passages of the source.

Experiments:
human uPAR = molecular target: T1, human uPAR (Homo sapiens, UniProt Q03405); assay: uPAR-binding affinity, saturation binding on HEK-uPAR cells; settings: 4 °C
T1 construct: host or cells: HEK cells transfected with human uPAR (HEK-uPAR)
Method: To determine the uPAR-binding affinity of the radiopeptides, saturation binding experiments were performed according to a previously published procedure using HEK-uPAR cells in 48-well plates (Supplementary Material). The assay was performed on ice (at 4 °C) to prevent target internalization upon binding of the radiopeptides. The cells were incubated with the radiopeptides in the presence or absence of excess AE105 (40 µM) together with the respective radiopeptides at concentrations ranging between 1 nM and 1600 nM. After removal of the supernatant, the HEK-uPAR cells were rinsed and lysed to be measured using a γ-counter (Wallac Wizard 1480, PerkinElmer). The KD values were determined by plotting the specific binding (values of cell samples incubated without AE105 minus the respective values of samples incubated with AE105) against the molar concentration of the added peptide. A nonlinear regression analysis was performed using GraphPad Prism software (version 10.1.1). The results are reported as average of KD values ± SD of n = 3 independent experiments. Methods: HEK-uPAR cells were seeded in poly-D-lysine-coated 48-well plates (0.25 × 10^6 in 0.5 mL per well) using DMEM culture medium with supplements. The cells were incubated at 37 °C and 5% CO2 overnight to allow adhesion and growth. The well plates with HEK-uPAR cells were placed on ice for the entire experiment to prevent internalization of the radiopeptides. After removal of the medium, the HEK-uPAR cells were rinsed with cold PBS (0.5 mL, pH 7.4) followed by the addition of DMEM culture medium without supplements (450 µL/well) in the presence or absence of AE105 (final concentration 40 µM) as a receptor blocking agent. The cells were incubated for 30 min on ice. The respective radiopeptides (5 MBq/nmol) were diluted in PBS at peptide concentrations 10‒16000 nM. A volume of 50 µL from each dilution was added to each well to obtain peptide concentrations in the range of […]. The assay was performed at 4 °C on ice, to prevent internalization of the radiopeptides. The radiopeptides were incubated on cells for 1 h on a shaker before rinsing twice with PBS (0.5 mL, pH 7.4). Increasing ligand concentrations were used to approximate saturation of the binding sites (Bmax value) at equilibrium. Ligand depletion effects of the ligand concentration in the supernatant of the cell samples were not taken into account. The cells were lysed using an aqueous NaOH solution (1 M, 600 µL) and the lysates were transferred to radioimmunoassay tubes for counting the activity in a γ-counter (Wallac Wizard 1480, PerkinElmer). The KD values were determined by plotting the specific binding (total binding minus unspecific binding) against the molar concentration of the added radiopeptide using GraphPad Prism software (version 10.1.1). The results were then expressed as average ± SD of n = 3 independent experiments.

[1] = format: in vitro ADME; settings: 1 µM
Method: The ^177Lu-labeled peptides (50 MBq/nmol) were incubated in mouse or human blood plasma (10 MBq/200 µL) over an incubation period of 24 h at 37 °C. Aliquots and control samples of the radiopeptides diluted in saline were analyzed after 1 h, 4 h and 24 h using thin layer chromatography (TLC) as previously reported (Supplementary Material). The distribution coefficients (logD values) of the ^177Lu-labeled peptides (50 MBq/nmol) were determined using a shake-flask method according to a previously published procedure (Supplementary Material).
Methods: A sample of each radiopeptide (50 MBq/nmol) was added to mouse blood plasma (Lot: 32321, Rockland Immunochemicals Inc., USA) or to human blood plasma (Stiftung Blutspende SRK Aargau-Solothurn, Switzerland) to obtain an activity concentration of 10 MBq/200 µL. The test samples were incubated at 37 °C for up to 24 h. Control samples referred to the radiopeptides which were instead diluted in saline at an activity concentration of 10 MBq/200 µL. Aliquots of each sample (2 µL, ~100 kBq) were taken after 1 h, 4 h and 24 h and investigated by means of thin layer chromatography (TLC). The employed method involved reversed-phase TLC plates (MERCK Analytical Chromatography, TLC Silica gel 60 RP-18 F254s) as stationary phase and ACN/citrate buffer (3:7; v/v; pH 5.5) as mobile phase. After the eluent reached the front line, the TLC plates were dried and exposed to a phosphor screen (Super resolution screen PSR10450013, PerkinElmer) for 1 min. The respective screen was developed using a storage phosphor system (Cyclone Plus, PerkinElmer) and analyzed using the OptiQuant Software (version 5.0, Bright Instrument Co Ltd., PerkinElmer).

in vivo = settings: CD1 nude, mouse, 0.5 nmol/mouse, total radioactivity
Method: HEK-uPAR xenografted mice were injected with the respective radiopeptide (5 MBq, 0.5 nmol/mouse, 100 µL 0.9% NaCl containing 0.05% BSA) and sacrificed at 4 h and 24 h after injection. […] The tissues and organs of interest were collected, weighed and counted for activity using a γ-counter (Wallac Wizard 1480, PerkinElmer). […] The results were presented as the average ± SD of n = 3 mice. The time-activity curves were determined for the uptake of [^177Lu]Lu-DOTA-AE105 and [^177Lu]Lu-uPAR-11 in the blood, HEK-uPAR xenografts, kidneys and liver based on non-decay corrected biodistribution data. For the blood, the initial uptake (t = 0) was set as 50% IA/g assuming a blood volume of 2 mL for CD1 nude mice. The initial uptake value (t = 0) for all other organs and tissues was set as 0% IA/g. […] The area under the curves over 48 h after injection (AUC0h→48 h) was calculated using GraphPad Prism software (version 10.1.1). Statistical analyses were performed by applying a one-way ANOVA test with a Dunnet’s multiple comparison post‐test to compare the data of the new radiopeptides with those of [^177Lu]Lu-DOTA-AE105 and a Tukey’s multiple comparisons post‐test to compare the novel radiopeptides among them. A p-value of < 0.05 was considered a statistically significant difference using GraphPad Prism software (version 10.1.1).

T1 sequence (Q03405 23-335): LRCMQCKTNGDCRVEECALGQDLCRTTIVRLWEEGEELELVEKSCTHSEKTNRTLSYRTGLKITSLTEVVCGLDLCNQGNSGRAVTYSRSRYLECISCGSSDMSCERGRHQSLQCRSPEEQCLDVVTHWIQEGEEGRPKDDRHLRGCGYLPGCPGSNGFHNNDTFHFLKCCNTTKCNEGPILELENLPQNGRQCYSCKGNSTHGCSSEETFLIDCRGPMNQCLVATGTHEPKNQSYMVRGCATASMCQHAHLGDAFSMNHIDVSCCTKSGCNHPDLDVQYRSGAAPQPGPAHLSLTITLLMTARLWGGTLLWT

| Structure (SMILES) | Kd (human uPAR) [nM] | Human blood plasma stability, intact radiopeptide ([1]; 1 h) [%] | Mouse blood plasma stability, intact radiopeptide ([1]; 1 h) [%] | Human blood plasma stability, intact radiopeptide ([1]; 4 h) [%] | Mouse blood plasma stability, intact radiopeptide ([1]; 4 h) [%] | Human blood plasma stability, intact radiopeptide ([1]; 24 h) [%] | Mouse blood plasma stability, intact radiopeptide ([1]; 24 h) [%] | tissue uptake at 4 h (in vivo; Blood uptake) [%ID/g] | tissue uptake at 24 h (in vivo; Blood uptake) [%ID/g] | tissue uptake at 4 h (in vivo; Bone uptake) [%ID/g] | tissue uptake at 24 h (in vivo; Bone uptake) [%ID/g] | tissue uptake at 4 h (in vivo; Brain uptake) [%ID/g] | tissue uptake at 24 h (in vivo; Brain uptake) [%ID/g] | tissue uptake at 4 h (in vivo; HEK-uPAR xenograft uptake) [%ID/g] | tissue uptake at 24 h (in vivo; HEK-uPAR xenograft uptake) [%ID/g] | tissue uptake at 4 h (in vivo; Heart uptake) [%ID/g] | tissue uptake at 24 h (in vivo; Heart uptake) [%ID/g] | tissue uptake at 4 h (in vivo; Intestines uptake) [%ID/g] | tissue uptake at 24 h (in vivo; Intestines uptake) [%ID/g] | tissue uptake at 4 h (in vivo; Kidneys uptake) [%ID/g] | also measured |
| --- | --- | --- | --- | --- | --- | --- | --- | --- | --- | --- | --- | --- | --- | --- | --- | --- | --- | --- | --- | --- | --- |
| Cc1ccc(CCCC(=O)NCCOCCOCCOCCC(=O)NCCCC[C@H](NC(=O)CN2CCN(CC(=O)O)CCN(CC(=O)O)CCN(CC(=O)O)CC2)C(=O)N[C@@H](CC(=O)O)C(=O)N[C@@H](CC2CCCCC2)C(=O)N[C@@H](Cc2ccccc2)C(=O)N[C@H](CO)C(=O)N[C@H](CCCNC(=N)N)C(=O)N[C@@H](Cc2ccc(O)cc2)C(=O)N[C@@H](CC(C)C)C(=O)N[C@@H](Cc2c[nH]c3ccccc23)C(=O)N[C@@H](CO)C(N)=O)cc1 [[^177Lu]Lu-uPAR-15, metal not drawn] | 42 ± 3 | 100 ± 1 | 100 ± 1 | 99 ± 1 | 99 ± 1 | 96 ± 1 | 94 ± 2 | 4.5 ± 0.5 | 0.04 ± 0.01 | 0.66 ± 0.05 | 0.12 ± 0.03 | 0.1 ± 0.02 | < 0.03 | 12 ± 1 | 3.1 ± 0.8 | 1.6 ± 0.2 | 0.13 ± 0.01 | 0.74 ± 0.15 | 0.16 ± 0.03 | 3.9 ± 0.6 | tissue uptake at 24 h (in vivo; Kidneys uptake): 2 ± 0.3 %ID/g; tissue uptake at 4 h (in vivo; Liver uptake): 1.6 ± 0.2 %ID/g; tissue uptake at 24 h (in vivo; Liver uptake): 0.5 ± 0.11 %ID/g; tissue uptake at 4 h (in vivo; Lung uptake): 2.6 ± 0.4 %ID/g; tissue uptake at 24 h (in vivo; Lung uptake): 0.27 ± 0.06 %ID/g; tissue uptake at 4 h (in vivo; Muscle uptake): 0.41 ± 0.1 %ID/g; tissue uptake at 24 h (in vivo; Muscle uptake): 0.05 ± 0.01 %ID/g; tissue uptake at 4 h (in vivo; Pancreas uptake): 0.61 ± 0.1 %ID/g; tissue uptake at 24 h (in vivo; Pancreas uptake): 0.09 ± 0.02 %ID/g; tissue uptake at 4 h (in vivo; Salivary glands uptake): 1.2 ± 0.2 %ID/g; tissue uptake at 24 h (in vivo; Salivary glands uptake): 0.21 ± 0.03 %ID/g; tissue uptake at 4 h (in vivo; Spleen uptake): 0.93 ± 0.09 %ID/g; tissue uptake at 24 h (in vivo; Spleen uptake): 0.51 ± 0.23 %ID/g; tissue uptake at 4 h (in vivo; Stomach uptake): 0.67 ± 0.11 %ID/g; tissue uptake at 24 h (in vivo; Stomach uptake): 0.12 ± 0.03 %ID/g |
| Cc1ccc(CCCC(=O)NCCOCCOCCOCCOCCC(=O)NCCCC[C@H](NC(=O)CC[C@H](C(=O)O)N2CCN(CC(=O)O)CCN(CC(=O)O)CCN(CC(=O)O)CC2)C(=O)N[C@@H](CC(=O)O)C(=O)N[C@@H](CC2CCCCC2)C(=O)N[C@@H](Cc2ccccc2)C(=O)N[C@H](CO)C(=O)N[C@H](CCCNC(=N)N)C(=O)N[C@@H](Cc2ccc(O)cc2)C(=O)N[C@@H](CC(C)C)C(=O)N[C@@H](Cc2c[nH]c3ccccc23)C(=O)N[C@@H](CO)C(N)=O)cc1 [[^177Lu]Lu-uPAR-17, metal not drawn] | 31 ± 6 | 100 ± 1 | 100 ± 1 | 99 ± 1 | 97 ± 2 | 96 ± 1 | 61 ± 9 | 6 ± 1.3 | < 0.03 | 0.82 ± 0.1 | 0.06 ± 0.01 | 0.13 ± 0.04 | < 0.03 | 8 ± 0.7 | 2.1 ± 0.5 | 2.2 ± 0.4 | 0.07 ± 0.01 | 0.87 ± 0.18 | 0.05 ± 0.01 | 4.6 ± 0.3 | tissue uptake at 24 h (in vivo; Kidneys uptake): 1.3 to 1.7 %ID/g; tissue uptake at 4 h (in vivo; Liver uptake): 1.7 ± 0.2 %ID/g; tissue uptake at 24 h (in vivo; Liver uptake): 0.21 ± 0.03 %ID/g; tissue uptake at 4 h (in vivo; Lung uptake): 3 ± 0.7 %ID/g; tissue uptake at 24 h (in vivo; Lung uptake): 0.12 ± 0.02 %ID/g; tissue uptake at 4 h (in vivo; Muscle uptake): 0.57 ± 0.1 %ID/g; tissue uptake at 24 h (in vivo; Muscle uptake): < 0.03 %ID/g; tissue uptake at 4 h (in vivo; Pancreas uptake): 0.82 ± 0.17 %ID/g; tissue uptake at 24 h (in vivo; Pancreas uptake): 0.04 ± 0.01 %ID/g; tissue uptake at 4 h (in vivo; Salivary glands uptake): 1.2 ± 0.3 %ID/g; tissue uptake at 24 h (in vivo; Salivary glands uptake): 0.12 ± 0.03 %ID/g; tissue uptake at 4 h (in vivo; Spleen uptake): 1 ± 0.2 %ID/g; tissue uptake at 24 h (in vivo; Spleen uptake): 0.13 ± 0.02 %ID/g; tissue uptake at 4 h (in vivo; Stomach uptake): 0.73 ± 0.29 %ID/g; tissue uptake at 24 h (in vivo; Stomach uptake): 0.05 ± 0.01 %ID/g |
